Measurements reported in US20090156477A1, “Compositions and Methods for Regulating Inflammatory Responses” (Massachusetts Institute of Technology, priority 2005, published 2009).
Entries after “also recorded” stand apart in the source; their conditions may differ.

Columns and labels:
[1] = test system: Caco-2 cells; test: Transepithelial resistance (TER) of Caco-2 monolayers; type: cell-based, human
Description: (§1) Caco-2 cells were grown close to confluence, and T84 cells were grown to confluence. The apical chambers of transwell plates with 6.5 mm diameter and 3 μm pore size filters were pretreated with 50 μl of 45 μg/ml collagen IV in 60% ethanol 24 hours prior to plating and incubated overnight at room temperature. After reaching confluence, cells were washed with 20 ml PBS and treated with 3.5 ml trypsin-EDTA per 175 cm^2 flask for 20-60 min at 37° C. until cells detached. Cells were resuspended in 16.5 ml media appropriate to the cell type. Each apical chamber was supplemented with 82 μl cell solution. The basolateral chamber was filled with 1 ml propagation media. Filters were fed with new media every two days over the course of experiments.
(§2) Caco-2 and T84 cells were allowed to grow on transwells to form monolayers. Monolayer formation was examined every other day by light microscopy as well as by transepithelial resistance (TER) measurements using an EVOM ohmmeter (World Precision Instruments, Sarasota, Fla.). After monolayer formation, cells were treated with 100 ng/ml FGF1, 100 ng/ml FGF2, 100 ng/ml FGF7 or an equivalent volume (10 μl) of PBS. TER measurements were made either after 72 hours or at each of the 30 minutes, 1 hour, 2 hours, 4 hours, 9 hours, 24 hours and 48 hours timepoints. To determine the effects of multiple additions of ligand, FGFs or PBS were added initially and again after 2 days, and TER measurements were made after 0, 2 and 5 days.
(§3) To probe the mechanism by which various FGFs induced cell mediated effects, various media treatments were employed. Ammonium tetrathiomolybdate (TM) was added 24 hours prior to the addition of ligands to yield a final concentration of 200 μM, sufficient to prevent the release of FGF1 [3]. Similarly, sodium chlorate, which reduces cell HSPGs and the sulfation of associated HSGAGs, was added 24 hours prior to the addition of ligands to yield a final concentration of 50 mM [33,34]. Antibodies and kinase inhibitors were added immediately prior to ligands. Antibodies to FGF1, FGFR1 and FGFR3 were added at a 1:100 dilution. Kinase inhibitors were added to yield final concentrations of 50 μM LY294002, 20 μM PD98059, 1 μM SB203580. All experiments were performed in triplicate.
Caco-2 cells were grown to just prior to confluency. The apical chambers of transwell plates with 6.5 mm diameter and 3 μm pore size filters were pretreated with 50 μl of 45 μg/ml mouse recombinant collagen IV (BD Biosciences, Bedford, Mass.) in 60% ethanol 24 hours prior to plating. Plates were incubated overnight at room temperature. Just prior to confluency, cells were washed with 20 ml phosphate buffered saline (PBS) and treated with 3.5 ml trypsin-EDTA per 175 cm^2 flask for 20-60 min at 37° C., until cells detached. Cells were resuspended in 16.5 ml media appropriate to the cell type. Each apical chamber was supplemented with 82 μl cell solution. The basolateral chamber was filled with 1 ml propagation media. Filters were fed with new media every two days over the course of experiments.
Caco-2 cells were allowed to grow on transwells to form monolayers. Monolayer formation was examined every other day by light microscopy as well as by TER measurements using an EVOM ohmmeter (World Precision Instruments, Sarasota, Fla.). After monolayer formation, cells were treated with 100 ng/ml recombinant human FGF1 (Amgen, Thousand Oaks, Calif.), 100 ng/ml recombinant human FGF2 [1], 100 ng/ml recombinant human FGF7 (Sigma, St. Louis, Mo.), or an equivalent volume (10 μl) of PBS. TER measurements were made after each of 30 minutes, 1 hour, 2 hours, 4 hours, 9 hours, 24 hours and 48 hours.
To probe the mechanism by which various FGFs induced cellular mediated effects, various media treatments were employed. TM was added 24 hours prior to the addition of ligands to yield a final concentration of 200 μM, sufficient to prevent the release of FGF1 [3]. […]

[2] = test system: T84 cells; test: Transepithelial resistance (TER) of T84 monolayers; type: cell-based, human; conditions: agent given before or with 100 ng/ml FGFs (TM 200 μM, sodium chlorate 50 mM, LY294002 50 μM, antibodies 1:100)
Description: as §1, §2, §3

[3] = test system: Caco-2 cells; test: Caco-2 proliferation assay (whole cell number); type: cell-based, human; conditions: TM 200 μM, FGF1 added to TM treated cells
Description: (§4) Caco-2 cells were grown to just prior to confluence, and T84 cells were grown to confluence. Each flask was washed with 20 ml PBS and treated with 3 ml trypsin-EDTA at 37° C. for 20-60 minutes until cells detached. Cells were centrifuged for 3 minutes at 195×g. The supernatant was aspirated, and the cells were resuspended in 10 ml media. The cell density was measured using an electronic cell counter, and the suspension was diluted to 50,000 cells/ml. The suspension was plated at 1 ml/well into 12-well tissue culture plates. After a 24 hour incubation in a 5% CO2, 37° C. humidified incubator, the media was aspirated, the wells were washed with serum free media, and the cells were supplemented with media containing 0.1% FBS. The wells were then supplemented with 10 μl PBS, 50 mM sodium chlorate, or 200 μM TM, and incubated for 24 hours. Subsequently, cells were supplemented with 100 ng/ml FGF1, FGF2, FGF7, or 10 μl PBS, and incubated for 72 hours. Wells were then washed twice with PBS and treated with 0.5 ml trypsin-EDTA/well and incubated at 37° C. until cells detached. Whole cell number was determined using an electronic cell counter. Data was averaged over three experiments, each consisting of four wells per condition.

[4] = test system: T84 cells; test: T84 proliferation assay (whole cell number); type: cell-based, human; conditions: TM 200 μM, FGF1 added to TM treated cells
Description: as §4

[5] = test system: FGF1; test: Immunohistochemistry for FGF1 in Caco-2 cells; type: cell-based, human; conditions: 200 μM TM for 24 hours
Description: (§5) To determine FGFR and FGF1 expression, Caco-2 cells were grown to just prior to confluence, and T84 cells were grown to confluence on collagen-coated glass slides. Cells were washed with PBS supplemented with 5% BSA. To stain for FGFR3, rabbit anti-human FGFR3 antibodies were added to cells at a 1:500 dilution and incubated for 1 hour. Cells were washed with PBS supplemented with 5% BSA, and FITC-conjugated goat anti-rabbit antibodies were added and incubated for 30 minutes. Cells were washed with BSA-PBS and examined using fluorescence microscopy. For FGF1 analysis, cells were treated with 200 μM TM or 10 μl PBS for 24 hours, formalin fixed, treated with goat anti-human FGF1 antibodies at a 1:200 dilution and incubated for 4 hours. Cells were washed with PBS supplemented with 5% BSA, and Texas red-conjugated donkey anti-goat antibodies were added and incubated for 1 hour. Cells were washed with BSA-PBS and examined using fluorescence microscopy.

[6] = test system: FGF1; test: Immunohistochemistry for FGF1 in T84 cells; type: cell-based, human; conditions: 200 μM TM for 24 hours
Description: as §5

[7] = target: FGFR3b expressed by Caco-2 and T84 cells (human) (UniProt P22607); test: cell-based or functional assay
[8] = cell line not stated (Caco-2 and T84 cells studied), PD98059 20 μM, SB203580 1 μM, LY294002 50 μM, antibodies 1:100
[9] = Caco-2 cells, agent given before or with 100 ng/ml FGFs (TM 200 μM, sodium chlorate 50 mM, LY294002 50 μM, PMA 100 ng/ml, antibodies 1:100)

Chain of UniProt P22607 (P22607 23-806): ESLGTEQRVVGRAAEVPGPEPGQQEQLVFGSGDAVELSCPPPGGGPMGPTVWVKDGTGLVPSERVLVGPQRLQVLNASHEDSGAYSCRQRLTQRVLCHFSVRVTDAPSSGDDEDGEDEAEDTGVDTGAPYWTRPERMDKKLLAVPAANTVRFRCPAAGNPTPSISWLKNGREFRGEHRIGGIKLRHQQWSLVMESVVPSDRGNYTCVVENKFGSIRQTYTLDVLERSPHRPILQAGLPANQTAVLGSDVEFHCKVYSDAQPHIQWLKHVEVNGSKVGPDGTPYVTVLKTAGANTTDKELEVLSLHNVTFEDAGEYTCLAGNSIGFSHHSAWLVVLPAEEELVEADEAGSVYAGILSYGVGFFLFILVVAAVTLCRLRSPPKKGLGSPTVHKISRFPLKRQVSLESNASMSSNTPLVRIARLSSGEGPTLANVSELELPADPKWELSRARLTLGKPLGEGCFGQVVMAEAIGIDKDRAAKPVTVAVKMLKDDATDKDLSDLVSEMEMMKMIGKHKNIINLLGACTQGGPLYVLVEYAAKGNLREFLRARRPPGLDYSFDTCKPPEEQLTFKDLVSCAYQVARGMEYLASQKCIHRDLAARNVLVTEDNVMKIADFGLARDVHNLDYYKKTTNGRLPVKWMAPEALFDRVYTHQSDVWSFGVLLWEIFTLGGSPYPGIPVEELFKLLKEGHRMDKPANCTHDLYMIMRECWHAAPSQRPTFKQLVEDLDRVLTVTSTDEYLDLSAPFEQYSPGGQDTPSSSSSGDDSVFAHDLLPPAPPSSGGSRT

Molecule: COc1cccc(-c2cc(=O)c3ccccc3o2)c1N [PD98059, reference compound]
- effect of added agent on FGF-induced reduction in TER [1, 8]: failed to eliminate the ligand mediated inhibition of TER

Molecule: CCCCCCCCCCCCCC(=O)O[C@@H]1[C@@H](C)[C@@]2(O)[C@@H](C=C(CO)C[C@]3(O)C(=O)C(C)=C[C@@H]23)[C@@H]2C(C)(C)[C@]12OC(C)=O [PMA, phorbol 12-myristate 13-acetate, reference compound]
- effect of added agent on FGF-induced reduction in TER [1, 9]: prevented FGF2 and FGF7 activity, but not that of FGF1

Molecule: C[S+]([O-])c1ccc(-c2nc(-c3ccncc3)c(-c3ccc(F)cc3)[nH]2)cc1 (stereo not shown) [SB203580, reference compound]
- effect of added agent on FGF-induced reduction in TER [1, 8]: failed to eliminate the ligand mediated inhibition of TER

Molecule: [Na+].[O-][Cl+2]([O-])[O-] [Sodium chlorate, sodium chlorate, reference compound]
- effect of added agent on FGF-induced reduction in TER [1, 9]: eliminated the ability; also recorded: abrogated the ability
- effect of added agent on FGF-induced reduction in TER [2]: eliminated the ability

Molecule: [NH4+].[NH4+].[SH-].[SH-].[S]=[Mo]=[S] [TM, Ammonium tetrathiomolybdate, reference compound]
- effect of added agent on proliferative effect of FGF2 and FGF7 [3]: eliminated the proliferative effect of FGF2 and FGF7
- effect of added agent on proliferative effect of FGF2 and FGF7 [4]: eliminated the proliferative effect of FGF2 and FGF7
- distribution of FGF1 [5]: retaining FGF1 closer to the nucleus
- distribution of FGF1 [6]: retaining FGF1 closer to the nucleus
- effect of added agent on FGF-induced reduction in TER [1, 9]: abrogated the reduction in TER induced by FGF2
- effect of added agent on FGF-induced reduction in TER [2]: prevented

Molecule: Boiled FGF1: FGF1 that was boiled, used as control in the TER test
- reduction of TER (in words) ([1]; cell line not stated (Caco-2 and T84 cells studied)): did not reduce TER

Molecule: Recombinant human FGF1 (from UniProt P05230 16-155) (ligand)
- inhibition of increases in TER over three days, Caco-2 cells [7]: 35.1%
- inhibition of increases in TER over three days, T84 cells [7]: 30.1%
- reduction of TER at 48 hours, Caco-2 cells [7]: 45.1%
- reduction of TER at 48 hours, T84 cells [7]: 22.7%
